Test results: patent publication US4864021A, “5-fluorouracil derivatives” (Otsuka Pharmaceutical Co., Ltd., priority 1984, dated 1989)
Read-outs that look alike come from different tables or passages of the source.

What was measured:
[1] = Acute toxicity, oral, 14 days observation, Litchfield-Wilcoxon method; conditions: mouse, in vivo, 5-week-old ICR male mice
Procedure: The compounds of the present invention prepared in Examples 2 and 54 were each orally administered to 5-week-old ICR male mice (8 mice in each group) to check the mice for the symptoms, change of weight and mortality by observing the mice for 14 consecutive days after the administration of the compounds. The LD50 value was determined from the mortality by the Litchfield-Wilcoxon method with the results shown below in Table 3.

Sarcoma-180 = assay: Antitumor test: Sarcoma-180 subcutaneously transplanted in ICR mice, oral once a day for 7 days, tumor weight on 10th day (50% tumor inhibition dose); type: in vivo; conditions: Mus musculus, 240 h, once a day for 7 consecutive days, read-out: ED50 (50% tumor inhibition dose, T/C is 0.5)
Procedure: (a) Sarcoma-180 subcultured in an ascites of ICR mice was diluted with a physiological saline solution and subcutaneously transplated into the backs of ICR mice in an amount of 2×10^7 each. Twenty-four hours after the transplantation, a test compound suspended in a 5% solution of gum arabic was orally administered to each of mice once a day for 7 consecutive days.
The solid tumor was extirpated from under the dorsal skin of mice on the 10th day after the transplantation to measure the weight of the tumor. There was determined the ratio (T/C) of the weight of tumor (T) cut out from the group of mice treated with the test compound to the weight of tumor (C) from the group of mice not treated therewith. The 50% tumor inhibition dose (ED50 value) in which T/C is 0.5 was determined from the dose-response curve of dosage and the ratio (T/C).

[2] = Table 1, Sarcoma-180 s.c. in ICR mice, tumor weight on 10th day
[3] = Table 2, same manner as in (a): Sarcoma-180 s.c. in ICR mice

Compound	LD50 at 336 h [1] [mg/kg]	ED50 (Sarcoma-180; [2]) [mg/kg]	ED50 (Sarcoma-180; [3]) [mg/kg]
O=c1[nH]c(=O)n([C@H]2C[C@H](OCc3ccccc3)[C@@H](CO)O2)cc1F [Example 2, 3'-O-benzyl-2'-deoxy-5-fluorouridine]	> 1000		
CC(=O)OC[C@H]1O[C@@H](n2cc(F)c(=O)[nH]c2=O)C[C@@H]1OCc1ccccc1 [Example 54, 3'-O-benzyl-5'-O-acetyl-2'-deoxy-5-fluorouridine]	> 1000	15	
O=c1[nH]c(=O)n([C@H]2C[C@H](OCc3ccccc3)[C@@H](CO)O2)cc1F [drawing 480]		8	
CC(=O)OC[C@H]1O[C@@H](n2cc(F)c(=O)n(C(=O)c3cccc(C(=O)Oc4cc(OC(=O)c5ccccc5)c(Cl)cn4)c3)c2=O)C[C@@H]1OC(C)=O [Example 197, 3-[3-(4-benzoyloxy-5-chloro-2-pyridyloxycarbonyl)benzoyl]-2'-deoxy-3',5'-di-O-acetyl-5-fluorouridine]			7
O=C(Oc1cc(OC(=O)c2ccccc2)c(Cl)cn1)c1cccc(C(=O)n2c(=O)c(F)cn([C@H]3C[C@H](OCc4ccccc4)[C@@H](COCc4ccccc4)O3)c2=O)c1 [Example 208, 3-[3-(4-benzoyloxy-5-chloro-2-pyridyloxycarbonyl)benzoyl]-2'-deoxy-3',5'-di-O-benzyl-5-fluorouridine]			5
O=c1[nH]c(=O)n([C@H]2C[C@H](OCc3ccccc3F)[C@@H](CO)O2)cc1F [Example 2]		8	
CC(=O)Oc1cc(OC(=O)c2cccc(C(=O)n3c(=O)c(F)cn([C@@H]4O[C@H](C)[C@@H](OC(C)=O)[C@H]4OC(C)=O)c3=O)c2)c(Cl)cn1 [Example 201, 3-[3-(2-acetoxy-5-chloro-4-pyridyloxycarbonyl)benzoyl]-5'-deoxy-2',3'-di-O-acetyl-5-fluorouridine]			12
CC(=O)OC[C@H]1O[C@@H](n2cc(F)c(=O)n(C(=O)c3cccc(C(=O)Oc4cc(OC(=O)c5ccccc5)c(Cl)cn4)c3)c2=O)[C@H](OC(C)=O)[C@@H]1OC(C)=O [Example 202, 3-[3-(4-benzoyloxy-5-chloro-2-pyridyloxycarbonyl)benzoyl]-5-fluoro-2',3',5'-tri-O-acetyluridine]			22
CCOCn1cc(F)c(=O)n(C(=O)c2cccc(C(=O)Oc3nc(OC(=O)c4ccccc4)ccc3C#N)c2)c1=O [Example 227, 3-[3-(3-cyano-6-benzoyloxy-2-pyridyloxycarbonyl)benzoyl]-1-ethoxymethyl-5-fluorouracil]			5
